Results on 1 compound are retold here after publication PMC6934184, “Selective DNA-PKcs inhibition extends the therapeutic index of localized radiotherapy and chemotherapy” (The Journal of Clinical Investigation, 2019).

Usually inhibition stands for the drop in the measured response relative to a control, in per cent.

In this assay the target is T1, PRKCG (PKC gamma) (Homo sapiens, UniProt P05129).
T1 construct: purchased Thermo Fisher Scientific (Life Technologies) SelectScreen
In words: SelectScreen Z'LYTE. The assay is classed as biochemical. In outline:
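Percent values come from Thermo SelectScreen profiling of NU5455, combining activity and binding assays. CSF1R was run in Z'LYTE format at Km app ATP, and CAMK1 in Adapta format with ATP listed at 10.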

`CN(C(=O)CN1CCOCC1)c1ccc2sc3c(-c4cccc5c(=O)cc(N6CC7CCC(C6)O7)oc45)cccc3c2c1` [NU5455] had an inhibition at 1 µM of 7.6%.
